Data published in patent US20210040054A1, “Substituted Hydrophobic Benzene Sulfonamide Thiazole Compounds for Use in Treating Cancer” (INSERM (Institut National de la Sante et de la Recherche …, priority 2015, published 2021).
Entries after “also recorded” stand apart in the source; their conditions may differ.

Assays:
Format in all cases: cell-based
[1] = tested on: MiaPACA cell lines (resistant to the nucleoside analog Gemcitabine); assay: Cell viability on Gemcitabine-resistant pancreatic cancer cells (FIG. 2c)
Description: (§1) Cells were seeded in 6-well plates (60000 cells/well), depleted and incubated with compounds for the times indicated. Then cells were detached in the presence of 200 μl of HyQTase (Thermo) and 2 ml of RPMI 1640 Glutamax (Gibco) was added to the cell solution. 10 μl of this solution was stained for 1 minute with 10 μl of 0.4% trypan blue before counting with a Malassez chamber.
(§2) FIG. 1: the Effect of Compounds Ia-7, IIIa-3, IIIa-1, IIIa-2, 11a-2, 11a-9, Ia-4, Ha-11, IIa-12, IIa-6, Compared to Ia-1, on Cell Viability on A375 Melanoma Cells. Cell viability was assessed by measuring the number of cells alive in samples of different cells. The measure of cell viability as performed by cell counting using the trypan blue exclusion method. Results were expressed as the percentage of cells alive relatively to the number of living cells in the presence of DMSO, which corresponds to the negative control associated to the 100% value. […] The very active compounds IIa-2, IIIa-1 and IIIa-3 substituted in para position respectively with an octyne, hexyl and octyl chain, were selected to investigate their potential to promote cell death on resistant melanoma cell lines as well as other cancer cell lines. FIG. 2a. Effect of Compounds 11a-2, IIIa-1 and IIIa-3 on Cell Viability on Melanoma Cells. PLX4032 was Used as a Positive Control. […] FIG. 2b. Effect of Compounds IIa-2, IIIa-1 and IIIa-3 on Cell Viability on CML Cells. Imatinib was Used as a Positive Control. The activity of compounds IIa-2, IIIa-1 and IIIa-3 against CML cells was also evaluated. […] FIG. 2c. Effect of Compounds IIa-2, IIIa-1 and IIIa-3 on Cell Viability on Pancreatic Cancer Cells. Gemcitabine was Used as a Positive Control. The compounds IIa-2, IIIa-1 and IIIa-3 were next evaluated against pancreatic cells, BxPC3 (sensitive) and MiaPACA cell lines (resistant to the nucleoside analog Gemcitabine).

[2] = tested on: sensitive K562 CML cells; assay: Cell viability on sensitive CML cells (FIG. 2b); conditions: compared with Imatinib
Description: as §1, §2

[3] = tested on: BxPC3 (sensitive); assay: Cell viability on sensitive pancreatic cancer cells (FIG. 2c); conditions: compared with Gemcitabine
Description: as §1, §2

[4] = tested on: A375 melanoma cells; assay: Cell viability, trypan blue exclusion cell counting (FIG. 1); conditions: compared to reference compound Ia-1
Description: (§3) Different melanoma cell lines were purchased from American Tissue Culture Collection (Molsheim, France). Cells were grown in RPMI 1640 (A375, WM9 and patient melanoma cells) or in DMEM medium (Mel501) supplemented with 10% FCS and penicillin/streptomycin (100 U/ml/[…]) at 37° C. and 5% CO2.
as §1
as §2, with “Effect of Compounds IIa-2, IIIa-1 and IIIa-3 on Cell Viability on Pancreatic Cancer Cells. Gemcitabine was Used as a Positive Control.” left out

[5] = tested on: resistant A375 R5C3 an A375 RIV cell lines; assay: Cell viability on resistant melanoma cell lines (FIG. 2a); conditions: resistant A375 R5C3 and A375 RIV cell lines; 10 μM
Description: as §3, §1, §2

[6] = tested on: sensitive melanoma cell lines; assay: Cell viability on sensitive melanoma cell lines (FIG. 2a); conditions: 10 μM
Description: as §3, §1
as §2, with “Effect of Compounds IIa-2, IIIa-1 and IIIa-3 on Cell Viability on Pancreatic Cancer Cells. Gemcitabine was Used as a Positive Control.” left out

[7] = tested on: resistant K562 cells; assay: Cell viability on resistant CML cells (FIG. 2b); conditions: compared with Imatinib
Description: as §1, §2

[8] = tested on: Normal human fibroblasts; assay: Viability of normal fibroblasts (FIG. 3); conditions: different concentration of IIa-2
Description: Normal human fibroblasts prepared from foreskins of newborns were grown under 5% CO2 at 37° C. in DMEM medium supplemented with 10% FCS and penicillin/streptomycin (100 U/ml/[…]).
as §1
(§4) Primary cell cultures of human normal melanocytes were prepared from human foreskin. In order to determine the effect of compound IIa-2 on cell viability of melanocytes and fibroblasts, different concentration of IIa-2 were added to the cell samples. The measure of cell viability was performed in the same way as for FIG. 1. Results are expressed as the percentage of living cells relatively to the number of living cells in the presence of DMSO, as for FIG. 1.

[9] = tested on: human normal melanocytes; assay: Viability of normal melanocytes (FIG. 3); conditions: different concentration of IIa-2
Description: Normal human melanocytes (NHM) prepared from foreskins of newborns were grown under 5% CO2 at 37° C. in MCDB 153 (Sigma) supplemented with 2% FCS, bovine pituitary extract (10 μg/ml), PMA (8 nM), bFGF (1 ng/ml), insulin (5 μg/ml), hydrocortisone (0.5 μg/ml), forskolin (10 μM), gentamicin (20 μg/ml), penicillin/streptomycin/amphotericin B (100 U/ml) (Invitrogen).
as §1, §4

[10] = tested on: A375 melanoma cell line; assay: Western blot, mechanism of death: PARP cleavage (apoptosis) and LCII/LCIII conversion (autophagy) (FIG. 4); conditions: IIa-2 at 10 μM
Description: Proteins were extracted in Fisher buffer containing TRIS-HCl pH 7.5 50 mM, NaCl 15 mM, Triton X-100 1% and proteases and phosphatases inhibitors. Briefly, cell lysates (30 μg) were separated by SDS-PAGE, transferred onto a PVDF membrane (Millipore, Molsheim, France) and then exposed to the appropriate antibodies. Proteins were visualized with the ECL system from Amersham (Arlington, Heights, Ill., USA). The western blots shown are representative of at least 3 independent experiments.

SMILES | cell viability [1] | cell viability [2] | cell viability [3] | cell viability (percentage of cells alive relatively to DMSO) [4] | cell viability [5] | cell viability [6] | cell viability [7] | cell viability of normal cells (percentage of living cells relatively to DMSO) [8] | cell viability of normal cells (percentage of living cells relatively to DMSO) [9] | mechanism of death: PARP cleavage (apoptosis) and LCII/LCIII conversion (autophagy) [10]
Nc1ccn([C@@H]2O[C@H](CO)[C@@H](O)C2(F)F)c(=O)n1 [Gemcitabine, reference compound] | inactive |  |  |  |  |  |  |  |  | 
CCCCCCc1ccc(S(=O)(=O)Nc2cccc(-c3csc(NC(C)=O)n3)c2)cc1 [IIIa-1, N-(4-(3-((4-hexylphenyl)sulfonamido)phenyl)thiazol-2-yl)acetamide] | still very active | viability decrease in the same range than the standard BCR-ABL inhibitor Imatinib | very high activity | very active | strong activity | strong activity | much more active |  |  | 
CCCCCCCCc1ccc(S(=O)(=O)Nc2cccc(-c3csc(NC(C)=O)n3)c2)cc1 [IIIa-3, N-(4-(3-((4-octylphenyl)sulfonamido)phenyl)thiazol-2-yl)acetamide] | still very active | viability decrease in the same range than the standard BCR-ABL inhibitor Imatinib | very high activity | very active | strong activity | strong activity | much more active |  |  | 
CCCCCCC#Cc1ccc(S(=O)(=O)Nc2cccc(-c3csc(NC(C)=O)n3)c2)cc1 [IIa-2, N-(4-(3-((4-(oct-1-yn-1-yl)phenyl)sulfonamido)phenyl)thiazol-2-yl)acetamide] |  | viability decrease in the same range than the standard BCR-ABL inhibitor Imatinib | very high activity; also recorded: total cell death | very active | strong activity | strong activity | much more active; also recorded: almost total mortality | no effect | no effect | induced both apoptosis and autophagy cellular deaths
CCCS(=O)(=O)Nc1ccc(F)c(C(=O)c2c[nH]c3ncc(-c4ccc(Cl)cc4)cc23)c1F [PLX4032, reference compound] |  |  |  |  | looses most activity |  |  |  |  | only apoptosis is induced
